# Counter-ions that a name gives are not always drawn.
# What was measured:
# conscious dogs = experiment: Hypotensive effects in conscious dogs before and after furosemide; type: in vivo, dog
# Method: (§1) The hypotensive effects of 2-butyl-4-chloro-1-[2'-(1H-tetrazol-5-yl)biphenyl-4-yl)methyl]-5-hydroxymethylimidazole sodium salt were compared before and after furosemide administration to conscious dogs. […] Plasma renin activity (PRA) in these animals was 1.5±0.5 ng AI/ml/hr. Four days later, furosemide was given to three of these dogs at 10 mg/kg im at 18 and 2 hours before the experiment and increased PRA to 19.9±7.2 ng AI/ml/hr. […] Thus a combined therapy of these two classes of drugs will be likely to increase the response rate to therapy among hypertensive patients.
# pressor response to AII = experiment: Inhibition of the pressor response to AII in conscious dogs; type: in vivo, dog
# Method: as §1
# [1] = biological target: AII receptor (rat adrenal cortical microsomes); experiment: Angiotensin II receptor binding (displacement of 3H-AII); conditions: 2 nM 3H-AII, 1 hour at room temperature
# Method: The hormone angiotensin II (AII) produces numerous biological responses (e.g. vasoconstriction) through stimulation of its receptors on cell membranes. […] The reaction mixture contained rat adrenal cortical microsomes (source of AII receptor) in Tris buffer and 2 nM of ^3 H-AII with or without potential AII antagonist. This mixture was incubated for 1 hour at room temperature and the reaction was subsequently terminated by rapid filtraton and rinsing through glass micro-fibre filter. Receptor-bound ^3 H-AII trapped in filter was quantitiated by scintillation counting.
# [2] = tested on: awake rats made hypertensive by ligation of the left renal artery; experiment: Antihypertensive effects in renal hypertensive rats; type: in vivo, rat
# Method: This procedure increases blood pressure by increasing renin production with consequent elevation of AII levels. Compounds are administered orally at 100 mg/kg and/or intravenously via a cannula in the jugular vein at 10 mg/kg. Arterial blood pressure is continuously measured directly through a carotid artery cannula and recorded using a pressure transducer and a polygraph. Blood pressure levels after treatment are compared to pretreatment levels to determine the antihypertensive effects of the compounds (See Table 1).
# Compounds listed in Table 2 were tested in the same manner as described for Table 1, except that in the test for antihypertensive effects in renal hypertensive rats, the compounds were administered orally at 30 mg/kg and intravenously at 3 mg/kg.
# [3] = tested on: patients with severe hypertension; experiment: Euglycemic hyperinsulinemic glucose clamp (insulin sensitivity); type: in vivo, human
# Method: (§2) At the time of the study only a three day wash-out period was allowed due to the severity of their hypertension.
# (§3) A euglycemic glucose clamp procedure was performed three days after the initial screening, and after withdrawl from previous antihypertensive medications.
# The euglycemic hyperinsulinemic glucose "clamp" was performed using a modification of the method described by DeFronzo, et al. Am. J. Physiol. 1979:237: E214-23, as previously detailed by Moan, et al., Metabolism, in press. Insulin was infused at a fixed rate of 1 mU/kg/min. […] This index is a ratio of the glucose disposal rate to the mean level of insulin during the last 20 minutes of the glucose clamp multiplied by 100, and is given arbitrary units. Blood for baseline adrenaline and noradrenaline were sampled in duplicate and the results averaged.
# [4] = tested on: patients with severe hypertension; experiment: Fasting glucose, fructosamine and insulin; type: in vivo, human; conditions: after Losartan
# Method: as §2, §3
# (§4) Fasting glucose was determined enzymatically, using a glucose dehydrogenase method and a Cobas Bio analyzer (Roche, Basel Switzerland). A Reflolux II (Mannheim Boehringer GmbH, Mannheim, Germany) was utilized to measure glucose concentration during the glucose clamp procedure (within run coefficient of variation <3% in our laboratory). Fructosamine was determined by calorimetric method. Insulin was measured by radioimmunoassay technique, using a specific antibody from Linco Research Inc. (St. Louis, Mo., USA). The lower limit of detection is 5 mU/l cross reactivity with proinsulin less than 1% and intra-assay coefficient of variation below 9% at all levels. Plasma catecholamines from specialized venous blood were measured by the radioenzymatic technique of Peuler Johnson as detailed in Kjelsen et al., Scan. J. Clin. Invest. 1993:42:217-23. Blood pressure and heart rate were measured oscillometrically with an Omega 1000™ Adult/Pediatric Blood Pressure Recorder (INVIVO Research Laboratories Inc., Tulsa Okla., USA).
# [5] = tested on: patients with severe hypertension; experiment: Baseline plasma catecholamines (radioenzymatic); type: in vivo, human
# Method: as §2, §3
# The euglycemic hyperinsulinemic glucose "clamp" was performed using a modification of the method described by DeFronzo, et al. Am. J. Physiol. 1979:237: E214-23, as previously detailed by Moan, et al., Metabolism, in press. Insulin was infused at a fixed rate of 1 mU/kg/min. This technique for measuring the glucose disposal rate has a day-to-day coefficient of less than 5% percent. […] The steady state levels of insulin varied from one person to another, and as a result the insulin sensitivity index was also calculated. This index is a ratio of the glucose disposal rate to the mean level of insulin during the last 20 minutes of the glucose clamp multiplied by 100, and is given arbitrary units. Blood for baseline adrenaline and noradrenaline were sampled in duplicate and the results averaged.
# as §4
# [6] = tested on: patients with severe hypertension; experiment: Blood pressure and heart rate (oscillometric); type: in vivo, human; conditions: after Losartan
# Method: as §2, §3, §4
# [7] = tested on: effects of AII on the blood pressure of pithed rats; conditions: cited from earlier work
# arterial pressure = conditions: cited from earlier work
# [8] = tested on: renal vasoconstrictor effect of NSAIDs; conditions: cited from earlier work
# Plasma renin activity = Plasma renin activity (PRA) in conscious dogs; type: in vivo, dog; conditions: furosemide 10 mg/kg im at 18 and 2 hours before; three dogs; before furosemide 1.5±0.5
# Method: as §1
smiles,measurement,setting,value
CCCCc1nc(Cl)c(CO)n1Cc1ccc(-c2ccccc2-c2nn[nH]n2)cc1 [2-butyl-4-chloro-1-[2'-(1H-tetrazol-5-yl)biphenyl-4-yl)methyl]-5-hydroxymethylimidazole sodium salt],blood pressure lowering,"conscious dogs; conscious dogs after furosemide 10 mg/kg im at 18 and 2 hours before, cumulative iv, same doses",significant decrease in blood pressure in a dose-dependent manner
same,blood pressure lowering,"conscious dogs; normotensive conscious dogs, before furosemide, cumulative iv 0.3 to 3 mg/kg, n=4",did not lower blood pressure
same,inhibition of pressor response to AII,"pressor response to AII; after furosemide, cumulative iv, same doses",inhibited the pressor response to AII at the two higher doses
same,inhibition of pressor response to AII,"pressor response to AII; before furosemide, AII 0.1 μg/kg iv, 10 min post dose, cumulative iv 0.3 to 3 mg/kg",effective in inhibiting the pressor response to AII
CCCCc1nc(Cl)c(C(=O)O)n1Cc1ccc(-c2ccccc2-c2nn[nH]n2)cc1 [EXP-3174],IC50,[1],0.011 µM
same,"Antihypertensive Effects in Renal Hypertensive Rats, Intravenous Activity","[2]; Table 2, 3 mg/kg",+ (Significant decrease in blood pressure at 3.0 mg/kg or less)
same,"Antihypertensive Effects in Renal Hypertensive Rats, Oral Activity","[2]; Table 2, 30 mg/kg",+ (Significant decrease in blood pressure at 30 mg/kg or less)
"CCCCc1nc(Cl)c(CO)n1Cc1ccc(-c2ccccc2-c2nnn[nH]2)cc1 [Losartan, 2-n-butyl-4-chloro-5-hydroxymethyl-1-[(2'-(1H-tetrazol-5-yl)biphenyl-4-yl)methyl]imidazole]","Antihypertensive Effects in Renal Hypertensive Rats, Intravenous Activity","[2]; Table 1, 10 mg/kg",+ (Significant decrease in blood pressure at 10 mg/kg or less)
same,"Antihypertensive Effects in Renal Hypertensive Rats, Oral Activity","[2]; Table 1, 100 mg/kg",+ (Significant decrease in blood pressure at 100 mg/kg or less)
same,increase in glucose disposal rate,"[3]; Losartan vs baseline, p<0.05",27%
same,glucose disposal rate,"[3]; after Losartan 50-100 mg oral once a day, average about 6 weeks, baseline 6.2±2.6, p<0.05",7.9±2.6 mg/kg×min
same,average plasma insulin level during second clamp,"[3]; insulin infused 1 mU/kg/min, end of Losartan monotherapy, first clamp 85±11",80±7 mU/l
same,fasting glucose,"[4]; baseline 5.0±0.3, non-significant",4.8 ± 0.1 mmol/L
same,fasting serum insulin,"[4]; baseline 12±3, unchanged",12±2 mU/l
same,fructosamine,"[4]; baseline 227±18, non-significant",217 ± 11 µmol/L
same,decrease in baseline plasma noradrenaline,"[5]; Losartan vs before treatment, p<0.05",40%
same,plasma adrenaline,"[5]; after Losartan, before treatment 0.23±0.10, n.s.",0.22 ± 0.11 nmol/L
same,baseline plasma noradrenaline,"[5]; after Losartan, before treatment 1.87±0.53, p<0.05",1.11 ± 0.13 nmol/L
same,baseline heart rate,"[6]; before treatment 65±9, n.s.",68±12 beats/min
same,baseline mean blood pressure,"[6]; before treatment 132±10, p<0.05",119±13 mmHg
"CNCC(=O)N[C@@H](CCCN=C(N)N)C(=O)N[C@H](C(=O)N[C@@H](Cc1ccc(O)cc1)C(=O)N[C@H](C(=O)N[C@@H](Cc1cnc[nH]1)C(=O)N1CCC[C@H]1C(=O)N[C@@H](C)C(=O)O)C(C)C)C(C)C [Saralasin, [Sar^1, Ala^8] AII]",antagonism of the actions of AII,[7]; pithed rats,one of the most potent competitive antagonists of the actions of AII
same,agonistic actions,"[7]; rat, in vivo",possesses agonistic actions of its own
same,oral efficacy,arterial pressure; oral doses,oral doses being ineffective
same,duration of pharmacological effects,arterial pressure; parenteral administration,relatively short-lasting
same,effect on arterial pressure,arterial pressure; pressure dependent on circulating AII,lower arterial pressure in mammals and man
same,pressor effects,arterial pressure; pressure not sustained by AII,generally elicits pressor effects when the pressure is not sustained by AII
same,inhibition of renal vasoconstrictor effect of indomethacin,[8]; dogs,inhibit the renal vasoconstrictor effect
same,inhibition of renal vasoconstrictor effect of meclofenamate,[8]; dogs,inhibit the renal vasoconstrictor effect
C[C@H](CS)C(=O)N1CCC[C@H]1C(=O)O [captopril],reversal of renal vasoconstrictor effect of indomethacin,[8]; dogs with non-hypotensive hemorrhage,reverse the renal vasoconstrictor effect of indomethacin
NS(=O)(=O)c1cc(C(=O)O)c(NCc2ccco2)cc1Cl [furosemide],Plasma renin activity (PRA),Plasma renin activity,19.9±7.2 ng AI/ml/hr

# Reference: patent publication US5962500A, “Insulin sensitivity with angiotensin II receptor blocking imidazoles” (priority 1994, dated 1999)
